According to the NIST ThermoML archive (doi:10.1016/j.jct.2011.10.012):
Several values for one entry are separate records, joined by “and”; a condition that tells them apart may be missing. Equal values may be shown once.

Conditions: for viscosity: 101.33 kPa, Cone and plate viscometry; for viscosity / mass density: Liquid; for mass density: Vibrating tube method; for surface tension liquid-gas: Wilhelmy plate

CCCCCCCCCCCCCC[P+](CCCCCC)(CCCCCC)CCCCCC.FC(F)(F)C(F)(F)[P-](F)(F)(F)(C(F)(F)C(F)(F)F)C(F)(F)C(F)(F)F
Conditions | surface tension liquid-gas [mN/m] | viscosity
283.09 K | – | 975.8 mPa·s and 976.8 mPa·s
283.1 K | – | 991.3 mPa·s and 992.8 mPa·s and 989.8 mPa·s
288.13 K | – | 697.9 mPa·s [middle of 4 runs]
293.07 K | – | 504.6 mPa·s [middle of 5 runs]
298.15 K | – | 335.9 mPa·s and 336.5 mPa·s
298.51 K | 28.99 | –
303.15 K | – | 256.1 mPa·s [middle of 5 runs]
305.16 K | 28.68 | –
308.15 K | – | 196 mPa·s [middle of 6 runs]
309.15 K | 28.44 | –
313.15 K | – | 151.2 mPa·s [middle of 8 runs]
313.65 K | 28.14 | –
318.15 K | – | 118.8 mPa·s [middle of 8 runs]
319.7 K | 27.8 | –
323.15 K | – | 96.4 mPa·s [middle of 15 runs]
325.35 K | 27.58 | –
328.15 K | – | 79.6 mPa·s [middle of 11 runs]
330.62 K | 27.28 | –
333.15 K | – | 65 mPa·s [middle of 13 runs]
337.9 K | 26.85 | –
338.15 K | – | 54 mPa·s [middle of 13 runs]
343.15 K | – | 44.3 mPa·s [middle of 9 runs]
343.29 K | 26.57 | –
348.15 K | – | 37.5 mPa·s [middle of 9 runs]
353.15 K | – | 32.1 mPa·s [middle of 8 runs]
358.15 K | – | 27.9 mPa·s and 28 mPa·s and 28.1 mPa·s
358.17 K | – | 28.2 mPa·s and 28.1 mPa·s and 28 mPa·s
363.17 K | – | 24.5 mPa·s and 24.4 mPa·s
363.18 K | – | 24.6 mPa·s and 24.5 mPa·s
363.2 K | – | 24.6 mPa·s and 24.5 mPa·s

mass density [kg/m3]
Conditions | 100 kPa | 2000 kPa | 3000 kPa | 5000 kPa | 10000 kPa | 15000 kPa | 20000 kPa | 25000 kPa
293.15 K | 1185.6 | 1187 | 1187.7 | 1189.2 | 1192.6 | 1196.1 | 1199.4 | 1202.6
298.15 K | 1181.8 | 1183.2 | 1183.9 | 1185.4 | 1189 | 1192.5 | 1195.8 | 1199.1
303.15 K | 1177.9 | 1179.4 | 1180.1 | 1181.6 | 1185.3 | 1188.9 | 1192.3 | 1195.6
308.15 K | 1174 | 1175.5 | 1176.3 | 1177.8 | 1181.5 | 1185.2 | 1188.7 | 1192.1
313.15 K | 1170.1 | 1171.6 | 1172.4 | 1174 | 1177.8 | 1181.5 | 1185.1 | 1188.6
318.15 K | 1166.2 | 1167.7 | 1168.5 | 1170.2 | 1174.1 | 1177.8 | 1181.5 | 1185
323.15 K | 1162.3 | 1163.8 | 1164.6 | 1166.3 | 1170.3 | 1174.1 | 1177.8 | 1181.4
328.15 K | 1158.3 | 1159.9 | 1160.7 | 1162.4 | 1166.5 | 1170.4 | 1174.2 | 1177.8
333.15 K | 1154.4 | 1155.9 | 1156.8 | 1158.5 | 1162.7 | 1166.7 | 1170.5 | 1174.2
338.15 K | 1150.4 | 1152 | 1152.9 | 1154.6 | 1158.9 | 1162.9 | 1166.8 | 1170.5
343.15 K | 1146.4 | 1148 | 1148.9 | 1150.7 | 1155 | 1159.1 | 1163.1 | 1166.9
